This note sets out measurements from EP3705478B1, “TRIAZINE COMPOUND AND PHARMACEUTICALLY ACCEPTABLE SALT THEREOF” (Shenzhen Forward Pharmaceuticals Co., Ltd., priority 2017, dated 2018).

Usually pIC50 stands for the IC50 on a negative log10 scale, so that one unit is a factor of ten.

Series [1] addresses T1, L858R/T790M EGFR (double mutant) (Homo sapiens, UniProt P00533, L858R/T790M).
T1 construct: The detection of phosphorylated p-EGFR of endogenous cells in cell lysate; host or cells: NCI-H1975
Kind of series: Test 1: Phosphorylation Test of L858R/T790M EGFR (double mutant) Cells (phospho-EGFR ELISA). As to conditions: NCI-H1975 cells, p-EGFR in cell lysate, compound incubation 2 hours. Format: cell-based. The method, then: (§1) NCI-H1975 cells are cultured in RPMI1640 medium containing 10% fetal bovine serum and 2 mM glutamine. Cells are grown in a humidified incubator with 5% CO2 at 37°C.
The detection of phosphorylated p-EGFR of endogenous cells in cell lysate is performed according to the protocol described in the DuoSet IC Human Phospho-EGFR ELISA (R&D Systems catalog number: # DYC1095) of R&D Systems Company. 90 µl of cells (8000 cells/well) are cultured in growth medium in a Corning 96-well plate with black transparent bottom, after culturing in a humidified incubator with 5% CO2 at 37°C overnight, the cell culture medium is replaced with RPMI1640 medium containing 1% fetal bovine serum and 2 mM glutamine to culture continuously. The compound serially diluted in 100% DMSO is added to the cells by pipette, and after gently mixing the medium, the cells are incubated for another 2 hours. 100 µl of 1X lysis buffer is added to each well. Greiner high-binding 96-well plates are coated with capture antibody, and then blocked with 3% BSA. After removing the blocking solution, 100 µl of lysate is transferred to a Greiner high-binding 96-well plate, then incubating for 2 hours. After gently mixing and washing the culture plate with PBS, 100 µl of detection antibody is added, then incubating for 2 hours. […] 100 µl of stop solution is added to the culture plate, and the absorbance of each well at 450 nm wavelength is measured. Finally, the data is input into a suitable software package (such as Prism) for curve fitting analysis.
In general terms: ELISA stands for enzyme-linked immunosorbent assay.

Series [2] relates to A431 (wild-type EGFR). The experiment in a line: Test 2: Proliferation Test of Wild-type EGFR Cells (Cell Titer-Glo). Format: cell-based. The conditions noted are these: Homo sapiens, read-out: IC50 value, Test 2. As to the method: The human […] cell line A431 (wild-type EGFR) is obtained from the American Type Culture Collection. […] cells are cultured in RPMI1640 medium containing 10% fetal bovine serum and 2 mM glutamine. Cells are grown in a humidified incubator with 5% CO2 at 37°C.
(§2) The number of viable cells in the culture is determined according to the protocol described in Cell Titer-Glo Luminescent cell Viability Assay (Promega catalog number: # G7570) of Promega company. 90 µl of cells (8000 cells/well) are cultured in growth medium in a Corning 96-well plate with black transparent bottom, culturing in a humidified incubator with 5% CO2 at 37°C overnight. The compound serially diluted in 100% DMSO is added to the cells by pipette, culturing the cells for another 72 hours. 100 µl of the mixed Cell Titer-Glo reagent is added to the cells in the 96-well culture plate to lyse the cells, mixing gently. Subsequently, the […] is detected on the Envision microplate detector to obtain data of the compound. Finally, the data is input into a suitable software package (such as Prism) for curve fitting analysis.
A general note: ATP-based viability assays read luminescence as a measure of living cells.

Series [3] concerns NCI-H1975 (L858R/T790M double mutant EGFR). The experiment in a line: Test 3: Proliferation Test of L858R/T790M EGFR (double mutant) cells (Cell Titer-Glo). Format: cell-based, human. As to conditions: for pIC50: Homo sapiens, NCI-H1975 cells, 72 hours; for Ratio of IC50 value of Test 2 to that of Test 3: selectivity: wild-type EGFR cells vs L858R/T790M EGFR (double mutant) cells. The method, then: as §1, §2

Series [4] has as its system Ba/F3-CAT-EGFR (wild-type EGFR) cells. Kind of series: Test 4: Proliferation Test of BalF3-CAT-EGFR cells (Cell Titer-Glo). Format: cell-based. As to conditions: 72 hours.
From the text: BalF3-CAT-EGFR cell viability detection is based on the detection technology developed by CellTiter-Glo®. BalF3 cells are transformed by overexpressing the intracellular kinase region of wild-type EGFR to construct a CAT-EGFR tool cell strain. This cell strain lives depending on the kinase activity of EGFR, if the wild-type EGFR is inhibited by a small molecule compound, the cell strain will die. Therefore, the specificity and activity of EGFR small molecules on wild-type EGFR may be evaluated by observing the effect of EGFR small molecules on cell viability.
Ba/F3-CAT-EGFR (wild-type EGFR) cells are cultured in RPMI1640 medium containing 10% fetal bovine serum and 2 mM glutamine. Cells are grown in a humidified incubator with 5% CO2 at 37°C.
as §2, with “100” for “90”, “(3000” for “(8000”

The test system of series [5] is BalF3-DTM-EGFR (mutant EGFR) cells. Kind of series: Test 5: Proliferation Test of Ba/F3-DTM-EGFR cells (Cell Titer-Glo). Format: cell-based. As to conditions: for Inhibitory selectivity of the compound, Ratio of IC50 value of Test 4 to IC50 value of Test 5: Ba/F3-CAT-EGFR vs Ba/F3-DTM-EGFR cells; for pIC50: Ba/F3-DTM-EGFR cells (T790M mutation and Exon19-deficient EGFR), 72 hours. As to the method: Ba/F3-DTM-EGFR cell viability detection is based on the detection technology developed by CellTiter-Glo®. […] This cell strain lives depending on the kinase activity of EGFR, if the mutant EGFR is inhibited by a small molecule compound, the cell strain will die. Therefore, the specificity and activity of EGFR small molecules on mutant EGFR may be evaluated by observing the effect of EGFR small molecules on cell viability.
BalF3-DTM-EGFR (mutant EGFR) cells are cultured in RPMI1640 medium containing 10% fetal bovine serum and 2 mM glutamine. Cells are grown in a humidified incubator with 5% CO2 at 37°C.
as §2, with “100” for “90”, “(3000” for “(8000”

Series [6] is described as follows: Test 6: Test of Plasma Protein Binding Rate (equilibrium dialysis), human plasma. Format: in vitro ADME. The conditions noted are these: equilibrium dialysis at 37°C for 4 hours, read-out: % Unbound of human plasma sample in Test 6. As to the method: (§3) The test of plasma protein binding rate is performed by using the 96-well equilibrium dialysis device from HTDialysis Company. The human plasma samples or mouse plasma samples with a concentration of 2 µM for the test and control compounds are performed equilibrium dialysis at 37°C for 4 hours so as to conduct the protein binding study. 150 µL of plasma sample with the test compound is added to the administration end of each dialysis well, and 150 µL of blank dialysis buffer is added to the receiving end corresponding to the dialysis well. The dialysis plate is then placed in a humidified incubator with 5% CO2 to incubate at 37°C for 4 hours. After dialysis, 50 µL of the dialyzed buffer sample and the dialyzed plasma sample are transferred to a new 96-well plate (sample receiving plate). The corresponding volume of corresponding blank plasma or buffer is added to the sample. All samples are analyzed by LC/MS/MS after protein precipitation. The concentration of the sample is expressed as the ratio of the peak area of the compound to the internal standard substance (semi-quantitative). Finally, the % Unbound, % Bound, and % Recovery of the compound are calculated according to the formula.

Series [7] can be described thus: Test 6: Test of Plasma Protein Binding Rate (equilibrium dialysis), mouse plasma. Format: in vitro ADME. The conditions noted are these: equilibrium dialysis at 37°C for 4 hours, read-out: % Unbound of mouse plasma sample in Test 6. The method, then:
as §3
For orientation: Equilibrium dialysis compares concentrations on both sides of a semipermeable membrane.

[8] abbreviates: A-431, wild-type EGFR cells, 72 hours.

SMILES strings stand for the structures. pIC50: −log10 of the molar value. Where two headings read alike, the source gives them in different places.

T1 sequence (P00533 25-1210 T790M/L858R): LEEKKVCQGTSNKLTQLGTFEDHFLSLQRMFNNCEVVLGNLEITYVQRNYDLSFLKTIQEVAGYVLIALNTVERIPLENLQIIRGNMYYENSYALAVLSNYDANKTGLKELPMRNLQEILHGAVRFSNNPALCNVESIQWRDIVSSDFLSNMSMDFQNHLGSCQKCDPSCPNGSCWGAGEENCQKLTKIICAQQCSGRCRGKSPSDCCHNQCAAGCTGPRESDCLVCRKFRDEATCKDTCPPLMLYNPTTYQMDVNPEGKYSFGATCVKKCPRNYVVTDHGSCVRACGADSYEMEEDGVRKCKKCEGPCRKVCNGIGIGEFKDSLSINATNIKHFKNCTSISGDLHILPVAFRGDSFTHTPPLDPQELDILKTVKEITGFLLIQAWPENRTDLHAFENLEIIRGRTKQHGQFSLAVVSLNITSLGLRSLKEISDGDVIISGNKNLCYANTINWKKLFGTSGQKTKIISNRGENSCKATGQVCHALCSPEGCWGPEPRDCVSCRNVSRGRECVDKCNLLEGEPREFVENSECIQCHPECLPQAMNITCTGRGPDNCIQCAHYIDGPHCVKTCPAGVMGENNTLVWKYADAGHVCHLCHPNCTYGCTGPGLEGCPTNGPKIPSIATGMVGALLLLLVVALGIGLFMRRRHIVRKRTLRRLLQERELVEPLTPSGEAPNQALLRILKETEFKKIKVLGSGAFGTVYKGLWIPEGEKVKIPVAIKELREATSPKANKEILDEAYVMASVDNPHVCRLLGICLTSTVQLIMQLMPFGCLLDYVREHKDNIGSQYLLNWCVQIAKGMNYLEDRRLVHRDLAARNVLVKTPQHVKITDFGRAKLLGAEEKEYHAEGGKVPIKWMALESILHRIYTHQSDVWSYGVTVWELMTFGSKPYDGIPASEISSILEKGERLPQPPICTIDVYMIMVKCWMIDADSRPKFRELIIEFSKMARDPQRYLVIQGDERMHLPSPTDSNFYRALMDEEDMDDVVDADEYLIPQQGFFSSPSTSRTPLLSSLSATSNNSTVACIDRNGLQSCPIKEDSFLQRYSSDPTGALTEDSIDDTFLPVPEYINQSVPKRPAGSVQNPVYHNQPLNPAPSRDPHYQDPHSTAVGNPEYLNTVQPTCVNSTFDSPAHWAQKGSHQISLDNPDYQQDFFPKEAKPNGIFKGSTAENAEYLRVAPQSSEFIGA

Turning to `C=CC(=O)Nc1cc(Nc2ncnc(-n3ccc4ncccc43)n2)c(OC)cc1N(C)CCN(C)C` [Compound 6, N-(5-((4-(1H-pyrrolo[3,2-b]pyridin-1-yl)-1,3,5-triazin-2-yl)amino)-2-((2-(dimethylamino)ethyl)(methyl)amino)-4-methoxyphenyl)acrylamide], the negative logarithm of the IC50 (pIC50) in series [1] was 7.82; in series [2] (setting [8]) it was 6.24; in series [3], 8.52. The “Ratio of IC50 value of Test 2 to that of Test 3” value (“Ratio of IC50 value … of Test 3” for short) in series [3] is 193.
Turning to `C=CC(=O)Nc1cc(Nc2ncnc(N3CC(C)(C)c4ncccc43)n2)c(OC)cc1N(C)CCN(C)C` [Compound 11, N-(5-((4-(3,3-dimethyl-2,3-dihydro-1H-pyrrolo[3,2-b]pyridin-1-yl)-1,3,5-triazin-2-yl)amino)-2-((2-(dimethylamino)ethyl)(methyl)amino)-4-methoxyphenyl)acrylamide], the values for the pIC50 in series [1], in series [4] and in series [5] were 7.95, below 5.00 and 8.47, respectively. For the same molecule, the “Inhibitory selectivity of the compound, Ratio of IC50 value of Test 4 to IC50 value of Test 5” value in series [5] is on record as above 2941.18. Moreover, the fraction unbound at 4 h, 2 µM in series [6] turned out to be 0.107; in series [7], 0.077.
As for `C=CC(=O)Nc1cc(Nc2ncnc(-n3cc(C)c4cnccc43)n2)c(OC)cc1N(C)CCN(C)C` [Compound 18, N-(2-((2-(dimethylamino)ethyl)(methyl)amino)-4-methoxy-5-((4-(3-methyl-1H-pyrrolo[3,2-c)pyridin-1-yl)-1,3,5-triazin-2-yl)amino)phenyl)acrylamide], in series [4], the pIC50 is below 5.00. Besides, in series [5], the “Inhibitory selectivity of the compound, Ratio of IC50 value of Test 4 to IC50 value of Test 5” value is given as above 1923.08 and the negative-log IC50 (pIC50) is 8.28.
`C=CC(=O)Nc1cc(Nc2ncnc(-n3nc(C)c4ccc(F)cc43)n2)c(OC)cc1N(C)CCN(C)C` [Compound 20, N-(2-((2-(dimethylamino)ethyl)(methyl)amino)-5-((4-(6-fluoro-3-methyl-1H-indazol-1-yl)-1,3 ,5-triazin-2-yl)amino)-4-methoxyphenyl)acrylamide]: the pIC50 in series [4] was below 5.00. For the same molecule, in series [5], the “Inhibitory selectivity of the compound, Ratio of IC50 value of Test 4 to IC50 value of Test 5” value is above 1851.85 and the pIC50 was 8.27.
In the case of `C=CC(=O)Nc1cc(Nc2ncnc(-c3cnc4c(C)cccn34)n2)c(OC)cc1N(C)CCN(C)C` [Compound 26, N-(2-((2-(dimethylamino)ethyl)(methyl)amino)-4-methoxy-5-((4-(8-methylimidazolo[1,2-a]pyridin-3-yl)-1,3,5-triazin-2-yl)amino)phenyl)acrylamide], the negative-log IC50 (pIC50) in series [1] was 7.92; in series [2] (setting [8]), 6.14; in series [3], 8.40; in series [4] it was below 5.00; in series [5], 8.43. The “Ratio of IC50 value … of Test 3” value in series [3] was 179.5. In addition, the “Inhibitory selectivity of the compound, Ratio of IC50 value of Test 4 to IC50 value of Test 5” value in series [5] was above 2702.70.
Consider `C=CC(=O)Nc1cc(Nc2ncnc(-c3cnc4c(F)cccn34)n2)c(OC)cc1N(C)CCN(C)C` [Compound 27, N-(2-((2-(dimethylamino)ethyl)(methyl)amino)-5-((4-(8-fluoroimidazolo[1,2-a]pyridin-3-yl)-1 ,3,5-triazin-2-yl)amino)-4-methoxyphenyl)acrylamide], for which the negative logarithm of the IC50 (pIC50) in series [1] was 7.93; in series [2] (setting [8]), 6.05; in series [3] it was 8.30; in series [4], below 5.00; in series [5], 8.49. Also, the “Ratio of IC50 value … of Test 3” value in series [3] turned out to be 176.6. Further, the “Inhibitory selectivity of the compound, Ratio of IC50 value of Test 4 to IC50 value of Test 5” value in series [5] was above 3125.00.
For `C=CC(=O)Nc1cc(Nc2ncnc(-c3cnc4c(C(F)(F)F)cccn34)n2)c(OC)cc1N(C)CCN(C)C` [Compound 28, N-(2-((2-(dimethylamino)ethyl)(methyl)amino)-4-methoxy-5-((4-(8-(trifluoromethyl)imidazolo[1,2-a]pyridin-3-yl)-1,3,5-triazin-2-yl)amino)phenyl)acrylamide], the pIC50 in series [1] was 7.94; in series [2] (setting [8]), 6.12; in series [3] it was 8.40; in series [4] it was below 5.00; in series [5] it was 8.40. The “Ratio of IC50 value … of Test 3” value in series [3] worked out at 189.5. For the same molecule, the “Inhibitory selectivity of the compound, Ratio of IC50 value of Test 4 to IC50 value of Test 5” value in series [5] was above 2500.00.
For `C=CC(=O)Nc1cc(Nc2ncnc(-n3nc(F)c4ccccc43)n2)c(OC)cc1N(C)CCN(C)C` [Compound 29, N-(2-((2-(dimethylamino)ethyl)(methyl)amino)-5-((4-(3-fluoro-1H-indazol-1-yl)-1,3,5-triazin-2-yl)amino)-4-methoxyphenyl)acrylamide], the pIC50 in series [1] is 7.97; in series [2] (setting [8]) it was 6.03; in series [3] it was 8.40; in series [4], below 5.00; in series [5], 8.35. The “Ratio of IC50 value … of Test 3” value in series [3] was 235.3. Besides, the “Inhibitory selectivity of the compound, Ratio of IC50 value of Test 4 to IC50 value of Test 5” value in series [5] is reported as above 2222.22.
For `C=CC(=O)Nc1cc(Nc2nccc(-c3cn(C)c4ccccc34)n2)c(OC)cc1N(C)CCN(C)C` [Osimertinib (AZD9291), Osimertinib, reference compound], the pIC50 is […] in series [2] (A-431, 72 h); […] in series [3]; 5.51 in series [4]; 8.15 in series [5]. The results for the fraction unbound at 4 h, 2 µM in series [6] and in series [7] were 0.025 and 0.005, respectively.
